pKi: −log10 of the molar value. Counter-ions that a name gives are not always drawn. Like-named read-outs stand apart in the source and are kept apart here.
How the values were obtained:
[1] = test system: spontaneous locomotor activity in mice; assay: Inhibition of spontaneous locomotor activity in mice, a test predictive of antipsychotic activity; type: in vivo; details: Mus musculus, read-out: Inhibition of Locomotor Activity in Mice (ED50, mg/kg, IP)
Experimental: (§1) The compounds of Formula I are valuable dopaminergic and serotonergic agents. […] Thus, the compounds of Formula I were tested for their ability to inhibit spontaneous locomotor activity in mice, a test predictive of antipsychotic activity, according to the assay described by McLean J. R., et al., Pharmacology, Biochemistry and Behavior, 1978;8:97-99; for their ability to bind to the dopamine D2 receptor using [^3 H]-2-(N-propyl-N-2-thienylethylamino)-5-hydroxytetralin ([^3 H)N-0437) as the ligand according to the method disclosed in Van der Weide J., et al., Eur. J. Pharmacol., 1987;134:211-219; and for their ability to bind to the serotonin 5HT1A receptor using [^3 H]-8-hydroxy-dipropylaminotetralin ([^3 H]-8-OH-DPAT) as the ligand according to the method disclosed in Peroutka S. J., et al., Brain Res., 1985;344:167-171. The above test methods are incorporated herein by reference. The data in the table show the dopaminergic and serotonergic activity of representative compounds of Formula I.

[2] = biological target: dopamine D2 receptor (h-D2 Receptors) (Homo sapiens, UniProt P14416); assay: Inhibition of [^3 H]N-0437 Binding to h-D2 Receptors; details: [^3 H]N-0437 ligand
Experimental: Thus, the compounds of Formula I were tested for their ability to inhibit spontaneous locomotor activity in mice, a test predictive of antipsychotic activity, according to the assay described by McLean J. R., et al., Pharmacology, Biochemistry and Behavior, 1978;8:97-99; for their ability to bind to the dopamine D2 receptor using [^3 H]-2-(N-propyl-N-2-thienylethylamino)-5-hydroxytetralin ([^3 H)N-0437) as the ligand according to the method disclosed in Van der Weide J., et al., Eur. J. Pharmacol., 1987;134:211-219; and for their ability to bind to the serotonin 5HT1A receptor using [^3 H]-8-hydroxy-dipropylaminotetralin ([^3 H]-8-OH-DPAT) as the ligand according to the method disclosed in Peroutka S. J., et al., Brain Res., 1985;344:167-171. The above test methods are incorporated herein by reference.

[3] = biological target: T1, serotonin 5HT1A receptor (Rat Hippocampus Membranes) (Rattus norvegicus, UniProt P19327); assay: Inhibition of [^3 H]8-OH-DPAT Binding to Rat Hippocampus Membranes; details: [^3 H]-8-OH-DPAT ligand
T1 construct: Hippocampus; from tissue; host or cells: rat hippocampus membranes
T1 sequence (P19327 1-422): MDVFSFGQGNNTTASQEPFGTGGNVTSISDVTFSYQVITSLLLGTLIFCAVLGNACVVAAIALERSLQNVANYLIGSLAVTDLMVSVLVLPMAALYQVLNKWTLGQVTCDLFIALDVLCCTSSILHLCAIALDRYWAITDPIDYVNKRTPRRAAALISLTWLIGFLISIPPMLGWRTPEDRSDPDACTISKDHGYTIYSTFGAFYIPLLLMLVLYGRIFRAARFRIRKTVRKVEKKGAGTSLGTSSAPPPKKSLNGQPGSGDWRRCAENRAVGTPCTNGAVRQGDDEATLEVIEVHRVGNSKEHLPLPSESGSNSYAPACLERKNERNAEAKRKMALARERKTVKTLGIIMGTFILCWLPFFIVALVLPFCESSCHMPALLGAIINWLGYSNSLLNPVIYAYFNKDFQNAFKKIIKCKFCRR
Experimental: as §1

Sequence of dopamine D2 receptor (h-D2 Receptors) (P14416 whole entry): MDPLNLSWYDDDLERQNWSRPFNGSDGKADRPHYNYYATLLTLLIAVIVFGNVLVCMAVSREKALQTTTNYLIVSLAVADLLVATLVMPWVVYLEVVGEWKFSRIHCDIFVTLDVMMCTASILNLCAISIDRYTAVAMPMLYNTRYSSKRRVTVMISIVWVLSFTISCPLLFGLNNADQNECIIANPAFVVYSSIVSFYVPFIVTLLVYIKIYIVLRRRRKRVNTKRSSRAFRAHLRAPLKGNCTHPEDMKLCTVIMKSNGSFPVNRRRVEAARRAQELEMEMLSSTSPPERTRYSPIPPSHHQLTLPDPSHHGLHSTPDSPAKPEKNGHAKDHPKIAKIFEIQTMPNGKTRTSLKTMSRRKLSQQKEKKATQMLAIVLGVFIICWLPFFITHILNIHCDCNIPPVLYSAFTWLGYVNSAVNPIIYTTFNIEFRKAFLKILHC

Row | Compound | ED50 ([1]; mice, IP, ED50) | pKi [2] | pKi [3] | ED50 ([1]; ip)
1 | COc1ccccc1N1CCN(CC[C@H]2CC[C@H](Nc3ncccn3)CC2)CC1 [Example 13, trans-(4-{2-[4-(2-Methoxy-phenyl)-piperazin-1-yl]ethyl}-cyclohexyl)-pyrimidin-2-yl-amine] | 0.5 mg/kg |  |  | 
2 | c1ccc(N2CCN(CC[C@H]3CC[C@H](Nc4cnccn4)CC3)CC2)cc1 [Example 27, trans-{4-[2-(4-Phenyl-piperazin-1-yl)-ethyl]-cyclohexyl}-pyrazin-2-yl-amine] | 0.18 mg/kg | 9.03 | 8.29 | 
3 | FC(F)(F)c1cccc(N2CCN(CC[C@H]3CC[C@H](Nc4ncccn4)CC3)CC2)c1 [Example 12, trans-Pyrimidin-2-yl-(4-{2-[4-(3-trifluoromethyl-phenyl)-piperazin-1-yl]-ethyl}-cyclohexyl)-amine] | 4.4 mg/kg |  |  | 
4 | c1ccc(N2CCN(CC[C@H]3CC[C@H](Nc4nccs4)CC3)CC2)cc1 [Example 26, trans-{4-[2-(4-Phenyl-piperazin-1-yl)-ethyl]-cyclohexyl}-thiazol-2-yl-amine] |  | 8.63 | 8.10 | 
5 | c1cnc(N[C@H]2CC[C@H](CCN3CCN(c4cccnc4)CC3)CC2)nc1 [Example 20, trans-{4-[2-(4-Pyridin-3-yl-piperazin-1-yl)-ethyl]-cyclohexyl}-pyrimidin-2-yl-amine] |  | 7.60 |  | 
6 | c1ccc(N2CCN(CC[C@H]3CC[C@H](Nc4ccccn4)CC3)CC2)cc1 [Example 24, trans-{4-[2-(4-Phenyl-piperazin-1-yl)-ethyl]cyclohexyl}-pyridin-2-yl-amine] | 0.2 mg/kg | 8.85 | 8.92 | 
7 | c1cnc(N[C@H]2CC[C@H](CCN3CCN(c4nccs4)CC3)CC2)nc1 [Example 17, trans-Pyrimidin-2-yl-{4-[2-(4-thiazol-2-yl-piperazin-1-yl)-ethyl]-cyclohexyl}-amine] | 0.3 mg/kg |  |  | 
8 | Cl.c1ccc(N2CCN(CC[C@H]3CC[C@@H](Nc4ncccn4)CC3)CC2)nc1 [Example 1, cis-{4-[2-(4-Pyridin-2-yl-piperazin-1-yl)-ethyl]-cyclohexyl}-pyrimidin-2-yl-amine hydrochloride] | 1.2 mg/kg |  | 8.06 | 
9 | Fc1ccc(N2CCN(CC[C@H]3CC[C@H](Nc4ncccn4)CC3)CC2)cc1 [Example 15, trans-(4-{2-[4-(4-Fluoro-phenyl)-piperazin-1-yl]-ethyl}-cyclohexyl)-pyrimidin-2-yl-amine] | 0.7 mg/kg | 8.08 | 8.36 | 
10 | c1ccc(N2CCN(CC[C@H]3CC[C@H](Nc4ncccn4)CC3)CC2)cc1 [Example 2, trans-{4-[2-(4-Phenyl-piperazin-1-yl)-ethyl]cyclohexyl}-pyrimidin-2-yl-amine] | 0.3 mg/kg | 8.47 | 8.51 | 
11 | C1=C(c2ccccc2)CCN(CC[C@H]2CC[C@H](Nc3ncccn3)CC2)C1 [Example 16, trans-{4-[2-(4-Phenyl-3,6-dihydro-2H-pyridin-1-yl)-ethyl]-cyclohexyl}-pyrimidin-2-yl-amine] |  |  |  | 0.25 mg/kg
12 | c1ccc(N2CCN(CC[C@H]3CC[C@@H](Nc4ncccn4)CC3)CC2)cc1 [Example 9, cis-{4-[2-(4-Phenyl-piperazin-1-yl)-ethyl]-cyclohexyl}-pyrimidin-2-yl-aminehydrochloride] |  | 7.55 | 8.72 | 
13 | c1ccc(N2CCN(CC[C@H]3CC[C@H](Nc4ncccn4)CC3)CC2)nc1 [Example 1a, trans-{4-[2-(4-Pyridin-2-yl-piperazin-1-yl)-ethyl]-cyclohexyl}-pyrimidin-2-yl-amine] | 0.24 mg/kg |  |  | 
